Assay results as given in patent US6841718B2 (priority 2000, dated 2005).

System: bacteria, yeast, algal and fungal spores, and invertebrate larvae
Assay: attachment of organisms

For `O=C(O)C=Cc1ccc(OS(=O)(=O)O)cc1` [Zosteric acid, para-(sulphooxy) cinnamic acid], the “attachment of a wide range of organisms” value was “inhibits attachment”.
